{"source": "patent EP4706685A1", "about": "“PHARMACEUTICAL FORMULATION COMPRISING LANOSTEROL, DERIVATIVE THEREOF, AND CYCLODEXTRIN” (CARBOEXPERT Inc., priority 2023, dated 2024)", "key": {"[1]": {"system": "mouse-derived macrophage cell line (Raw264.7)", "experiment": "Anti-inflammatory effect against LPS in macrophage cell line, cytokine mRNA by RT-PCR", "type": "cell-based", "settings": "treated at 5 ug/ml; LPS 0.1 µg/ml, 4 hours", "method": "Specifically, Raw264.7 was seeded into a […] at a density of 0.8 X 10^6 cells/well and cultured overnight. Then, the cells were pre-treated with inotodiol and the inotodiol/CD inclusion complex each at different concentrations for 2 hours. The cells were treated with lipopolysaccharide (LPS) at a concentration of 0.1 µg/ml and cultured for 4 hours to induce inflammation, after which RNA was extracted. Then, the mRNA expression of IL-6, IL-1β, and TNF-α was confirmed by a reverse transcription polymerase chain reaction (RT-PCR) method, and the results are shown in FIG. 6."}, "[2]": {"experiment": "Stability in solution (visual observation of precipitation with auxiliary agent)", "type": "physicochemical", "settings": "precipitation observed visually after 24 hours at room temperature", "method": "Specifically, unenclosed inotodiol or the inotodiol/CD inclusion complex was mixed with a prepared auxiliary agent. The auxiliary agent was prepared at a concentration of 100 to 15,000 ppm based on the weight of inotodiol, and then treated in a sonic bath at 50 °C for 30 minutes. Afterwards, the stability was determined by visually observing whether precipitation occurred after leaving the mixture at room temperature for 24 hours."}}}
{"smiles": "CC(C)=CC[C@@H](O)[C@@H](C)[C@H]1CC[C@@]2(C)C3=C(CC[C@]12C)[C@@]1(C)CC[C@H](O)C(C)(C)[C@@H]1CC3", "note": "[inotodiol, (3S,5R,10S,13R,14R,17R)-17-[(2S,3R)-3-hydroxy-6-methylhept-5-en-2-yl]-4,4,10,13,14-pentamethyl-2,3,5,6,7,11,12,15,16,17-decahydro-1H-cyclopenta[a]phenanthren-3-ol]", "values": [{"measurement": "mRNA expression level of IL-6", "setting": "[1]", "result": "significantly reduced"}, {"measurement": "mRNA expression level of TNF-α", "setting": "[1]", "result": "significantly reduced"}, {"measurement": "ppm of inotodiol in solution", "setting": "[2]; Kolliphor (5 %)", "result": "500 < ppm"}, {"measurement": "ppm of inotodiol in solution", "setting": "[2]; Tween 80 (1 %)", "result": "100 < ppm"}]}
